Patent US20220235012A1, “ACID ADDITION SALT OF PYRIMETHAMINE” (GLG PHARMA S.A., priority 2018, published 2022)
Counter-ions that a name gives are not always drawn.

Legend:
[1] = cited from earlier work
[2] = Solubility of pyrimethamine salts, own method at 20° C. and 60° C. in water, 10% Tween 80 and 10% Cremophor RH 40; assay type: physicochemical; conditions: without surfactant and/or emulsifier
[3] = Solubility in terms of Ph. Eur. 9.2 (approximate volume of solvent per gram of solute); assay type: physicochemical; conditions: descriptive term
Procedure: The solubility of pyrimethamine salts with different organic and mineral acids was evaluated according to the general recommendations described in Ph. Eur. 9.2 for the pharmaceutical active ingredients. The “solubility” ° according to Ph. Eur. 9.2, is the approximate volume of solvent in millilitres per gram of solute.

Row | solubility in water at ambient temperature [2] | Solubility in terms of Ph. Eur. 9.2 [3] | Structure (SMILES) | solubility of pyrimethamine in water [1] [µg/mL]
1 | – | – | CCc1nc(N)nc(N)c1-c1ccc(Cl)cc1 [pyrimethamine, 5-(4-chlorophenyl)-6-ethyl-2,4-pyrimidinediamine] | 10
2 | freely soluble | Sparingly soluble | CCc1nc(N)nc(N)c1-c1ccc(Cl)cc1 [Methanesulfonate, methanesulfonic acid salt of 5-(4-chlorophenyl)-6-ethyl-2,4-pyrimidinediamine] | –
